In patent publication US20150119410A1, “BIOMARKERS OF RESPONSE TO NAE INHIBITORS” (MILLENNIUM PHARMACEUTICALS, INC., priority 2011, published 2015):

Key:
Type in all cases: cell-based
[1] = test system: CAL-62; experiment: Cell line panel 2 high-content screen; settings: Homo sapiens; CAL-62 (thyroid); 72 hours
Procedure: (§1) To support clinical development and identify potential biomarkers of tumor sensitivity or resistance, two large cancer cell line panels (Panel 1, N=653 (McDermott et al. (2007) PNAS 104:19936-19941); Panel 2, N=240 (O'Day et al. (2010) Fourth AACR International Conference on Molecular Diagnostics in Cancer Therapeutic Development)) were treated with MLN4924 and cell viability data (IC50, EC50, and POC—Percentage of Control) were generated.
(§2) Panel 2 (Ricerca Biosciences, Inc., Bothell, Wash.). MLN4924 was added in half-log dilutions for 10 concentrations and treated for 72 hours. High-content cell screening by fluorescence microscopy included image analysis to generate several types of data. Results included EC50 values (after measurement of cell numbers, the EC50 concentration was calculated from the inflection point of a curve of percent of control (POC) against log of MLN4924 concentration), IC50 values (from the POC-log MLN4924 plot, IC50 is the concentration at 50% maximal possible response), apoptosis (measurement of activation of caspase 3 plotted against log of MLN4924 concentration, determined as the concentration for >5 fold induction), and mitotic activity (determined by measuring the fold increase of phospho-histone 3). A comparison of EC50 to IC50 (FIG. 3) allowed assignment of cell lines to sensitive, insensitive or resistant. Final identification of a cell line as sensitive or resistant was based on the EC50 values. The cutoff for sensitivity is a median EC50 of less than the median value of all POC's recorded in the panel (<0.36), borderline sensitivity was associated with median EC50 of 0.36 to 1.67 and insensitive or resistant cell lines were identified by EC50 greater than the 3rd quartile of all POC's in the panel (>1.67).

[2] = test system: NCl-H520; experiment: Cell line panel 2 high-content screen; settings: NCl-H520 (lung NSCLC); 72 hours
Procedure: as §1, §2

[3] = test system: SKUT1; experiment: Cell line panel 2 high-content screen; settings: Homo sapiens, SK-UT-1; SKUT1 (smooth muscle); 72 hours
Procedure: as §1, §2

[4] = test system: COLO-205; experiment: Cell line panel 1 viability screen
Procedure: as §1
(§3) Panel 1 (McDermott et al., supra). The cell lines were exposed to three MLN4924 concentrations (20 nM, 200 nM, and 2 μM) for 72 hours. Viability, i.e., cell number, was quantified by measuring fluorescence of a cell-permeant nucleic acid stain. Mean of triplicate values for each sample were taken and compared to DMSO control to calculate percentage of control. In the results, control or no activity value is given a value of about 1, sensitivity is indicated by a value less than 1, with 0 as death of the entire cell population and resistance indicated by a value greater than 1. A continuum of viability values was obtained for each concentration, so some values were selected as cut-offs for final determination of sensitivity or resistance. For example, median POC values of less than the median value of all POC's recorded in the panel (<0.34) indicated sensitivity, values of 0.34 to 0.75 indicated borderline sensitivity, values greater than the 3rd quartile of all POC's in the panel (>0.75) insensitivity or resistance. […] Final judgment of cell line as sensitive, insensitive or resistant was determined by its viability at 2 μM.

[5] = test system: SK-MEL-30; experiment: Cell line panel 1 viability screen; settings: Homo sapiens; SK-MEL-30 (skin); 2 μM MLN4924, 72 hours; DMSO control about 1
Procedure: as §1, §3

[6] = test system: SW837; experiment: Cell line panel 1 viability screen; settings: Homo sapiens; SW837 (intestine); 2 μM MLN4924, 72 hours; DMSO control about 1
Procedure: as §1, §3

[7] = test system: MKN45; experiment: Cell line panel 1 viability screen; settings: MKN45 (stomach)
Procedure: as §1, §3

[8] = test system: MKN28; experiment: Cell line panel 1 viability screen; settings: Homo sapiens, MKN-28; MKN28 (stomach); 2 μM MLN4924, 72 hours; DMSO control about 1
Procedure: as §1, §3

[9] = test system: NUGC-3; experiment: Cell line panel 1 viability screen; settings: NUGC-3 (stomach)
Procedure: as §1, §3

[10] = test system: KYSE-450; experiment: Cell line panel 1 viability screen; settings: KYSE-450 (oesophagus)
Procedure: as §1, §3

[11] = test system: PANC-03-27; experiment: Cell line panel 1 viability screen; settings: PANC-03-27 (pancreas)
Procedure: as §1, §3

[12] = test system: NCI-N87; experiment: Cell line panel 1 viability screen; settings: NCI-N87 (stomach)
Procedure: as §1, §3

[13] = test system: CFPAC-1; experiment: Cell line panel 1 viability screen; settings: CFPAC-1 (pancreas)
Procedure: as §1, §3

[14] = test system: C2BBe1; experiment: Cell line panel 1 viability screen; settings: Homo sapiens; C2BBe1 (intestine); 2 μM MLN4924, 72 hours; DMSO control about 1
Procedure: as §1, §3

[15] = test system: HT55; experiment: Cell line panel 1 viability screen; settings: Homo sapiens; HT55 (intestine); 2 μM MLN4924, 72 hours; DMSO control about 1
Procedure: as §1, §3

[16] = test system: C-33a; experiment: Cell line panel 1 viability screen; settings: C-33a (Cervix)
Procedure: as §1, §3

[17] = test system: ESS-1; experiment: Cell line panel 1 viability screen; settings: ESS-1 (Uterus)
Procedure: as §1, §3

[18] = test system: COCM1; experiment: Cell line panel 1 viability screen
Procedure: as §1, §3

[19] = Homo sapiens, 2 μM MLN4924, 72 hours, DMSO control about 1

With `NS(=O)(=O)OC[C@@H]1C[C@@H](n2ccc3c(N[C@H]4CCc5ccccc54)ncnc32)C[C@@H]1O` [MLN4924, ((1S,2S,4R)-4-{4-[(1S)-2,3-dihydro-1H-inden-1-ylamino]-7H-pyrrolo[2,3-d]pyrimidin-7-yl}-2-hydroxycyclopentyl)methyl sulphamate] the EC50 [1] was 83.7 nM, the EC50 [2] was 261 nM and the EC50 [3] was 85.6 nM. For the same compound, the Phenotype ([4]; COLO-205 (large_intestine), SMAD4 mutant) was “sensitive (median POC values of less than the median value of all POC's recorded in the panel (<0.34) indicated sensitivity)”, the viability at 2 µM ([4]; Homo sapiens, COLO-205 (intestine), 2 μM MLN4924, 72 hours, DMSO control about 1) was 14.4% and the viability at 2 µM [5] was 77.3%. The viability at 2 µM [6] was 70.2%, the viability at 2 µM ([7]; Homo sapiens, MKN-45, 2 μM MLN4924, 72 hours, DMSO control about 1) was 36.1% and the Phenotype ([7]; SMAD4 mutant) was “insensitive (values of 0.34 to 0.75 indicated borderline sensitivity)”. The viability at 2 µM [8] was 28.5%, the viability at 2 µM [9, 19] was 9.8% and the Phenotype ([9]; NF2 mutant) was “sensitive (median POC values of less than the median value of all POC's recorded in the panel (<0.34) indicated sensitivity)”. The viability at 2 µM [10, 19] was 14.3%, the Phenotype ([10]; KDM6A mutant) was “sensitive (median POC values of less than the median value of all POC's recorded in the panel (<0.34) indicated sensitivity)” and the viability at 2 µM [11, 19] was 7.24%. For the same compound, the Phenotype ([11]; SMAD4 mutant) was “sensitive (median POC values of less than the median value of all POC's recorded in the panel (<0.34) indicated sensitivity)”, the viability at 2 µM [12, 19] was 14.6% and the Phenotype ([12]; SMAD4 mutant) was “sensitive (median POC values of less than the median value of all POC's recorded in the panel (<0.34) indicated sensitivity)”. The Phenotype ([13]; SMAD4 mutant) was “sensitive?”, the viability at 2 µM [13, 19] was 28.2% and the viability at 2 µM [14] was 71.6%. The viability at 2 µM [15] was 51.4%, the Phenotype ([16]; FBXW7 mutant) was “sensitive (median POC values of less than the median value of all POC's recorded in the panel (<0.34) indicated sensitivity)” and the viability at 2 µM [16, 19] was 8.22%. The Phenotype ([17]; FBXW7 mutant) was “sensitive (median POC values of less than the median value of all POC's recorded in the panel (<0.34) indicated sensitivity)”, the viability at 2 µM [17, 19] was 5.29% and the viability at 2 µM ([18]; COCM1 / CoCM-1 (intestine), 2 μM MLN4924, 72 hours, DMSO control about 1) was 114%. For the same compound, the Phenotype ([18]; CoCM-1 (large_intestine), SMAD4 mutant) was “resistant (values greater than the 3rd quartile of all POC's in the panel (>0.75) insensitivity or resistance)”.
